Results from patent US20220380375A1, “SUBSTITUTED AROMATIC FUSED RING DERIVATIVE AND COMPOSITION COMPRISING SAME, AND USE THEREOF” (Shenzhen TargetRx, Inc., priority 2019, published 2022).

What was measured:
Format in all cases: cell-based
[1] = molecular target: T1, Ba/F3 FLT3-ITD^F691L cells (Homo sapiens, UniProt P36888, F691L, cells depend on it, form not given); assay: Cytotoxicity assay (CellTiter-Glo), Ba/F3 FLT3-ITD F691L; conditions: CellTiter-Glo, 72 hrs; read-out: Ba/F3 FLT3-ITD^F691L IC50
T1 construct: Ba/F3 FLT3-ITD^F691L IC50 (nM); other: CellTiter-Glo, 72 hrs
T1 sequence (P36888 1-993 F691L): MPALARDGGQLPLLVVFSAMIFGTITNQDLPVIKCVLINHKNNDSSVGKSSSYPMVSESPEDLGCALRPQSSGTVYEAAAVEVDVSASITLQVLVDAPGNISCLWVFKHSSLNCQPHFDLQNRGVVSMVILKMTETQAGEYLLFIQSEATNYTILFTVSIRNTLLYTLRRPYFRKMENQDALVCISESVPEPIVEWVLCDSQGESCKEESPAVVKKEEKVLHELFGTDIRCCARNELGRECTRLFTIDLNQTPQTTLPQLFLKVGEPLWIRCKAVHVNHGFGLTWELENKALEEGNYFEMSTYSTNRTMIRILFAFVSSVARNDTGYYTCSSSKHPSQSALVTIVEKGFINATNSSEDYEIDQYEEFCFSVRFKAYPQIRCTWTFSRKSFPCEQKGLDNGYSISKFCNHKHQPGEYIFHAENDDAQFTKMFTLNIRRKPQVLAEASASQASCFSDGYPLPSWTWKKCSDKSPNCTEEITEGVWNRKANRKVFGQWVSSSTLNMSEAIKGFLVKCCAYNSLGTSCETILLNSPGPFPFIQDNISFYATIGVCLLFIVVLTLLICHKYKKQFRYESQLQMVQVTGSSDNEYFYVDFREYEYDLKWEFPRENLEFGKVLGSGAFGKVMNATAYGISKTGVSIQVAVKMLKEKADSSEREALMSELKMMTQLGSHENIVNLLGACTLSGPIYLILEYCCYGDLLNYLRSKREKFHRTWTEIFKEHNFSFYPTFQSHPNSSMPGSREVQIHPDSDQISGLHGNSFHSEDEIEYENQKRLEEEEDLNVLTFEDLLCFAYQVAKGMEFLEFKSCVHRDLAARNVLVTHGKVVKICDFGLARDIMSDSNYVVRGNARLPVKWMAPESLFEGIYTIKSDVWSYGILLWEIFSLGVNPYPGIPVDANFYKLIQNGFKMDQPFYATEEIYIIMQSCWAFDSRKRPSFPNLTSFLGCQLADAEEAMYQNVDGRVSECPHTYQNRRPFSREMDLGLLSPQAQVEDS
Method: (§1) Inhibitory effects of example compounds on the activity of Ba/F3 parental generation, Ba/F3 KIF5B-RET, Ba/F3 KIF5B-RET^V804M, Ba/F3 KIF5B-RET^V804L, Ba/F3 KIF5B-RET^G810R, Ba/F3 FLT3-ITD, Ba/F3 FLT3-ITD^D835Y, Ba/F3 FLT3-ITD^F691L cells were determined.
(§2) Materials and reagents: fetal bovine serum FBS (GIBCO, Cat #10099141), CellTiter-Glo® Luminescent Cell Viability Assay kit (Promega, Cat #G7572), 96-well black-wall clear flat-bottom plate (Corning®, Cat #3603).
(§3) 1. Cells in the logarithmic growth phase were harvested and counted with a […]. Cell viability was detected by a trypan blue exclusion method, ensuring that cell viability was 90% or more; 2. Cell concentration was adjusted to about 3000 cells/well; 90 μl of cell suspension was added to each well of the 96-well plate; 3. The cells in the 96-well plate were incubated overnight under the condition of 37° C., 5% CO2, and 95% humidity.
(§4) 1. A series of compound solutions were formulated by 3.16-fold serial dilution starting from a concentration of 10 μM, resulting in 9 concentrations. 10 μL of the compound solutions were added in each well of the 96-well plate seeded with cells in triplicate for each compound concentration; 2. The cells in the 96-well plate added with compounds were further incubated under the condition of 37° C., 5% CO2, and 95% humidity for 72 hrs, and then CTG analysis was carried out.
(§5) 1. CTG reagent was thawed, and the cell plate was equilibrated at room temperature for 30 minutes; 2. An equal volume […] of CTG solution was added to each well; 3. The cell plate was shaken on an orbital shaker for 5 minutes to lyse the cells; 4. The cell plate was placed at RT for 20 minutes to stabilize the luminescence signal; 5. Luminescence value was read.
(§6) Data were Analyzed by GraphPad Prism 5.0 Software, and Fitted by Nonlinear S-Curve Regression to obtain a dose-response curve, from which IC50 values were calculated.
(§7) Cell survival rate (%)=(luminescence value of drug to be tested−luminescence value of culture medium control)/(luminescence value of cell control−luminescence value of culture medium control)×100%.

[2] = system: Ba/F3 FLT3-ITD^F691L cells; assay: as above; conditions: ratio of Ba/F3 parental IC50 to Ba/F3 FLT3-ITD^F691L IC50
Method: as §1, §2, §3, §4, §5, §6, §7

[3] = system: Ba/F3 KIF5B-RET^G810R cells; assay: Cytotoxicity assay (CellTiter-Glo), Ba/F3 KIF5B-RET G810R; conditions: ratio of Ba/F3 parental IC50 to Ba/F3 KIF5B-RET^G810R IC50
Method: as §1, §2, §3, §4, §5, §6, §7

[4] = molecular target: T2, Ba/F3 KIF5B-RET^G810R cells (Homo sapiens, UniProt P07949, G810R, cells depend on it); assay: as above; conditions: CellTiter-Glo, 72 hrs; read-out: Ba/F3 KIF5B-RET^G810R IC50
T2 construct: Ba/F3 KIF5B-RET^G810R IC50 (nM); other: CellTiter-Glo, 72 hrs; fused on or other part: P33176 (Kinesin-1 heavy chain)
Method: as §1, §2, §3, §4, §5, §6, §7

[5] = molecular target: T3, Ba/F3 KIF5B-RET^V804M cells (Homo sapiens, UniProt P07949, V804M, cells depend on it); assay: Cytotoxicity assay (CellTiter-Glo), Ba/F3 KIF5B-RET V804M; conditions: CellTiter-Glo, 72 hrs; read-out: Ba/F3 KIF5B-RET^V804M IC50
T3 construct: Ba/F3 KIF5B-RET^V804M IC50 (nM); other: CellTiter-Glo, 72 hrs; fused on or other part: P33176 (Kinesin-1 heavy chain)
Method: as §1, §2, §3, §4, §5, §6, §7

[6] = system: Ba/F3 KIF5B-RET^V804M cells; assay: as above; conditions: ratio of Ba/F3 parental IC50 to Ba/F3 KIF5B-RET^V804M IC50
Method: as §1, §2, §3, §4, §5, §6, §7

[7] = molecular target: T4, Ba/F3 KIF5B-RET cells (Homo sapiens, UniProt P07949); assay: Cytotoxicity assay (CellTiter-Glo), Ba/F3 KIF5B-RET; conditions: CellTiter-Glo, 72 hrs; read-out: Ba/F3 KIF5B-RET IC50
T4 construct: Ba/F3 KIF5B-RET IC50 (nM); other: CellTiter-Glo, 72 hrs; fused on or other part: P33176 (Kinesin-1 heavy chain)
Method: as §1, §2, §3, §4, §5, §6, §7

[8] = system: Ba/F3 KIF5B-RET cells; assay: as above; conditions: ratio of Ba/F3 parental IC50 to Ba/F3 KIF5B-RET IC50
Method: as §1, §2, §3, §4, §5, §6, §7

T4 sequence (P07949 whole entry, change not shown, the tested form may be a part): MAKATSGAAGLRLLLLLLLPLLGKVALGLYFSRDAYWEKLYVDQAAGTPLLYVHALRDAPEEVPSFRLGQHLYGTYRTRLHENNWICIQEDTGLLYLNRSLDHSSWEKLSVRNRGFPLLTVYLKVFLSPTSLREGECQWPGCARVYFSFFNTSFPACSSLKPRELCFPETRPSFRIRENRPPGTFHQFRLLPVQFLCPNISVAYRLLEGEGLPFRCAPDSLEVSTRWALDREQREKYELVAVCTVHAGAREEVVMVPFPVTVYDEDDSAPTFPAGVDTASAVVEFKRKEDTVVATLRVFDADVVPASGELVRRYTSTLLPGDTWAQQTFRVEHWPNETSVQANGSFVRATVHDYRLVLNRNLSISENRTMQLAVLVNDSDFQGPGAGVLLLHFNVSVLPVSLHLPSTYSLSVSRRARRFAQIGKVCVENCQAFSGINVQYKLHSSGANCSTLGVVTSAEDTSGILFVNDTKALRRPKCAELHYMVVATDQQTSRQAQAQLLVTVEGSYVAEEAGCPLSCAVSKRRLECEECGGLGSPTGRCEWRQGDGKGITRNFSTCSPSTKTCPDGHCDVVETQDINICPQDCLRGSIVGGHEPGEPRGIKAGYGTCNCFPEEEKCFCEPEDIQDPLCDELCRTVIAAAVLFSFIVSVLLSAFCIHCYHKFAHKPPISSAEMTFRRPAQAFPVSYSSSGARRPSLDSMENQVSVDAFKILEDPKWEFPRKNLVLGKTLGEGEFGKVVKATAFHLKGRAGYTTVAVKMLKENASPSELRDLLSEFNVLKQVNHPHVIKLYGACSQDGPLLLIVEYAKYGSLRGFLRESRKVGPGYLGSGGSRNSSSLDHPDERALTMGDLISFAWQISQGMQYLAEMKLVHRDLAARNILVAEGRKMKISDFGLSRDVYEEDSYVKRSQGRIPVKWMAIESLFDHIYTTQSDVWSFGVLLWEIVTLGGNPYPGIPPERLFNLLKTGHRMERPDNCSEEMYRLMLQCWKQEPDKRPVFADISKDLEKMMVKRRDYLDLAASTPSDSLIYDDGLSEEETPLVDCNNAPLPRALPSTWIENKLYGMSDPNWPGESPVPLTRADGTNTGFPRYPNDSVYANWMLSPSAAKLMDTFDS
T2 sequence (P07949 whole entry G810R, the tested form may be a part): as the sequence (P07949 whole entry, change not shown, the tested form may be a part) above, with G810R counted along it
T3 sequence (P07949 whole entry V804M, the tested form may be a part): as the sequence (P07949 whole entry, change not shown, the tested form may be a part) above, with V804M counted along it

With CC(C)n1nc(-c2ccc(CC(=O)Nc3cc(C(C)(C)C(F)(F)F)no3)cn2)c2c(N)ncnc21 [Compound T-9, 2-(6-(4-amino-1-isopropyl-1H-pyrazolo[3,4-d]pyrimidin-3-yl)pyridin-3-yl)-N-(3-(1,1,1-trifluoro-2-methylprop-2-yl)isoxazol-5-yl)acetamide] the GI50 [1] was 28.1 nM, the “Ba/F3 FLT3-ITD^F691L Selectivity on parental generation” value (“Ba/F3 FLT3-ITD^F691L Selectivity” for short) [2] was 146.5 and the “Ba/F3 KIF5B-RET^G810R Selectivity on parental generation” value (shortened to “Ba/F3 KIF5B-RET^G810R Selectivity”) [3] was 86.3. For the same molecule, the GI50 [4] was 47.7 nM, the GI50 [5] was 29.9 nM and the “Ba/F3 KIF5B-RET^V804M Selectivity on parental generation” value (“Ba/F3 KIF5B-RET^V804M Selectivity” for short) [6] was 137.7. For the same molecule, the GI50 [7] was 10.9 nM and the “Ba/F3 KIF5B-RET Selectivity on parental generation” value (“Ba/F3 KIF5B-RET Selectivity” below) [8] was 377.8.
CC(C)c1nc(-c2ccc(CC(=O)Nc3cc(C(C)(C)C(F)(F)F)on3)cc2)c2c(N)ncnn12 [Compound T-10, 2-(4-(4-amino-7-isopropylimidazo[5,1-f][1,2,4]triazin-5-yl)phenyl)-N-(5-(1,1,1-trifluoro-2-methylprop-2-yl)isoxazol-3-yl)acetamide] was tested, and the GI50 [1] was 39.1 nM, the “Ba/F3 FLT3-ITD^F691L Selectivity” value [2] was 57.3 and the “Ba/F3 KIF5B-RET^G810R Selectivity” value [3] was 806.5. The GI50 [4] was 2.78 nM, the GI50 [5] was 11.7 nM and the “Ba/F3 KIF5B-RET^V804M Selectivity” value [6] was 191.6. For the same molecule, the GI50 [7] was 3.68 nM and the “Ba/F3 KIF5B-RET Selectivity” value [8] was 609.2.
With [2H]C([2H])([2H])C(n1nc(-c2ccc(CC(=O)Nc3cc(C(C)(C)C(F)(F)F)no3)cc2)c2c(N)ncnc21)C([2H])([2H])[2H] [Compound T-11, 2-(4-(4-amino-1-(propan-2-yl-1,1,1,3,3,3-d6)-1H-pyrazolo[3,4-d]pyrimidin-3-yl)phenyl)-N-(3-(1,1,1-trifluoro-2-methylpropan-2-yl)isoxazol-5-yl)acetamide] the GI50 [1] was 13.6 nM, the “Ba/F3 FLT3-ITD^F691L Selectivity” value [2] was 404.9 and the “Ba/F3 KIF5B-RET^G810R Selectivity” value [3] was 939.8. The GI50 [4] was 5.86 nM, the GI50 [5] was 3.63 nM and the “Ba/F3 KIF5B-RET^V804M Selectivity” value [6] was 1517.1. The GI50 [7] was 1.3 nM and the “Ba/F3 KIF5B-RET Selectivity” value [8] was 4236.2.
For [2H]C([2H])([2H])C(n1cc(-c2ccc(CC(=O)Nc3cc(C(C)(C)C(F)(F)F)on3)cc2)c2c(N)ncnc21)C([2H])([2H])[2H] [Compound T-12, 2-(4-(4-amino-7-(propen-2-yl-1,1,1,3,3,d6)-7H-pyrrolo[2,3-d]pyrimidin-5-yl)phenyl)-N-(5-(1,1,1-trifluo-2-methylpropan-2-yl)isoxazol-3-yl)acetamide], the GI50 [1] was 3.7 nM, the “Ba/F3 FLT3-ITD^F691L Selectivity” value [2] was 289.7 and the “Ba/F3 KIF5B-RET^G810R Selectivity” value [3] was 167.5. The GI50 [4] was 6.4 nM, the GI50 [5] was 4.55 nM and the “Ba/F3 KIF5B-RET^V804M Selectivity” value [6] was 235.6. The GI50 [7] was 2.24 nM and the “Ba/F3 KIF5B-RET Selectivity” value [8] was 478.6.
